# Measurements reported in patent US12528786B2, “Plasma kallikrein inhibitors” (Merck Sharp & Dohme LLC, priority 2020, dated 2026).
# Molecular target: T1, Human plasma kallikrein (Homo sapiens, UniProt P03952)
# T1 construct: yields a heavy chain (371 amino acids) and a light chain (248 amino acids); purchased Enzyme Research Laboratories
# Test: Kallikrein Assay (fluorogenic substrate hydrolysis, AFC release)
# Assay type: biochemical
# Conditions: purified Human plasma kallikrein 0.5 nM; substrate Acetyl-K—P—R-AFC 100 mM; 50 mM HEPES pH 7.4
# Outline: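 Purified human plasma kallikrein (0.5 nM final) with Acetyl-K-P-R-AFC substrate (final ≤0.2 Km) in 50 mM HEPES pH 7.4, 150 mM NaCl, 5 mM CaCl2, 0.1% PEG 8000, after enzyme–inhibitor equilibration; room temperature or 37° C. AFC fluorescence (405 Ex/510 Em nm) under linear conditions; IC50 by four-parameter fit, Ki via Cheng-Prusoff.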
# T1 sequence (P03952 391-638 limits assumed): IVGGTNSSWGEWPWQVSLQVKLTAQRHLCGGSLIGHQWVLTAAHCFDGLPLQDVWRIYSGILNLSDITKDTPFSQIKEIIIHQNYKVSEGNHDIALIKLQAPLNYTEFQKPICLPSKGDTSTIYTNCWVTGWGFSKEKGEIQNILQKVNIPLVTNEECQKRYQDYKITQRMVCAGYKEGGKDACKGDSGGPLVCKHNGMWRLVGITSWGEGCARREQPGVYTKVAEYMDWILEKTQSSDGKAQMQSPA
# T1 sequence (P03952 20-390 partner limits assumed): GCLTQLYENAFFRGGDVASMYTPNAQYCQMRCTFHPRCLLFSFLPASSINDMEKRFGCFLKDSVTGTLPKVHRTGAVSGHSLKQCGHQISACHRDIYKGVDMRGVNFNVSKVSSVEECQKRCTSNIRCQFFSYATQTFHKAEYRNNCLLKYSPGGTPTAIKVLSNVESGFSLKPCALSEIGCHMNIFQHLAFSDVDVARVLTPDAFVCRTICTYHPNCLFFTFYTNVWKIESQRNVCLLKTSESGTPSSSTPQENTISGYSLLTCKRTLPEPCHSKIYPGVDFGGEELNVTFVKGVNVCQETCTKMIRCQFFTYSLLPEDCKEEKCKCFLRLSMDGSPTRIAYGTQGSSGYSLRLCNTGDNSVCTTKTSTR
row,IC50 [nM],Compound
1,153,"Cc1cc(N2C[C@H]3C[C@H]3C2=O)cnc1C(C)n1cc(C(=O)N[C@H]2C[C@@H](c3cc(Cl)ccc3C#N)C2)nn1 (single isomer, unassigned) [Example 90, N-((cis)-3-(5-chloro-2-cyanophenyl)cyclobutyl)-1-((R or S)-1-(3-methyl-5-((1R,5S)-2-oxo-3-azabicyclo[3.1.0]hexan-3-yl)pyridin-2-yl)ethyl)-1H-1,2,3-triazole-4-carboxamide]"
2,1.1,"COc1cc(N2C[C@H]3C[C@H]3C2=O)ncc1C(C)n1cc(C(=O)N[C@H]2C[C@@H](c3cc(Cl)ccc3C#N)C2)nn1 (single isomer, unassigned) [Example 89, N-((cis)-3-(5-chloro-2-cyanophenyl)cyclobutyl)-1-((S or R)-1-(4-methoxy-6-((1R,5S)-2-oxo-3-azabicyclo[3.1.0]hexan-3-yl)pyridin-3-yl)ethyl)-1H-1,2,3-triazole-4-carboxamide]"
3,1.8,"COc1cc(C(C)n2cc(C(=O)N[C@H]3C[C@@H](c4cc(Cl)ccc4C#N)C3)nn2)cnc1N1C[C@H]2C[C@H]2C1=O (single isomer, unassigned) [Example 101, N-((cis)-3-(5-chloro-2-cyanophenyl)cyclobutyl)-1-((R or S)-1-(5-methoxy-6-((1R,5S)-2-oxo-3-azabicyclo[3.1.0]hexan-3-yl)pyridin-3-yl)ethyl)-1H-1,2,3-triazole-4-carboxamide]"
4,6.5,"CC(c1cnc(N2C[C@H]3C[C@H]3C2=O)c(N)c1)n1cc(C(=O)N[C@H]2C[C@@H](c3cc(Cl)ccc3C#N)C2)nn1 (single isomer, unassigned) [Example 108, 1-((S or R)-1-(5-amino-6-((1R,5S)-2-oxo-3-azabicyclo[3.1.0]hexan-3-yl)pyridin-3-yl)ethyl)-N-((cis)-3-(5-chloro-2-cyanophenyl)cyclobutyl)-1H-1,2,3-triazole-4-carboxamide]"
